# Experimental data published in ChEMBL document CHEMBL1201862, “PubChem BioAssay data set” (2004).
# Activity calls are given as the source filed them.
# Tests used:
# [1] = target: Mitogen-activated protein kinase 10 (Homo sapiens, UniProt P53779); assay: Dose response biochemical screening assay for inhibitors of c-Jun N-Terminal Kinase 3 (JNK3). [Related pubchem assays: 746 ]
# [2] = Luminescence Cell-Based Dose Response HTS to Identify Inhibitors of 5'UTR Stem-Loop Driven Prion Protein mRNA Translation in H4 Neuroglioblastoma Cells. [Related pubchem assays: 1827 (Project Summary), 1813 (Primary HTS)]; type: functional
# [3] = inhibitors of SNCA 5'UTR-driven reporter translation, confirmation, H4 neuroglioma cells, luminescence (AID 1988); type: functional, cell-based
# [4] = inhibitors of firefly luciferase expression or activity, dose response, H4 neuroglioma cells, luminescence (AID 1990); type: functional, cell-based
# Estrogen receptor beta [5] = target: T1, Estrogen receptor beta (Homo sapiens, UniProt Q92731);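 note: recombinant ER-beta bound to coactivator SRC1 peptide in presence of estradiol agonist; inhibitors block coactivator peptide binding and lower the FRET signal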
# T1 sequence (Q92731 whole entry): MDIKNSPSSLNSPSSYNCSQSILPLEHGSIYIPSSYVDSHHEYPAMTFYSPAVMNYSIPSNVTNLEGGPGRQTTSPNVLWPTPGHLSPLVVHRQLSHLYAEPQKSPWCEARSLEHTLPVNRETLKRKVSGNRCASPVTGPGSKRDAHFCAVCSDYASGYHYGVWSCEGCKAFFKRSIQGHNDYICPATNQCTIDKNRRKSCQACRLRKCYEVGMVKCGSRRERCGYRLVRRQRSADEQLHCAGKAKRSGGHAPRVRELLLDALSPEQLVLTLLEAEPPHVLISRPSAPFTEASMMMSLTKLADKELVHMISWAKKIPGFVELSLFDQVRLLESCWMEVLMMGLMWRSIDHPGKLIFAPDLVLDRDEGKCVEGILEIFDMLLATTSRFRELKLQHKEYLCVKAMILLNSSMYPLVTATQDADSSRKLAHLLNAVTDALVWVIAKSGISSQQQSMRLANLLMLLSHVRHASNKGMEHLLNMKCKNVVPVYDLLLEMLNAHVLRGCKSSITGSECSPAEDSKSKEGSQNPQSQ
# [6] = target: T2, Heat shock factor protein 1 (Mus musculus, UniProt P38532); assay: inhibition of MG132-induced HSE-luciferase signal, confirmation, cell-based, NIH3T3, luminescence, dose retest (AID 2382); type: functional;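 note: NIH3T3 fibroblasts with HSF1-driven luciferase reporter stressed by proteasome inhibitor MG132; luminescence from HSF1-driven luciferase expression after 8 hours of MG132 stress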
# T2 sequence (P38532 whole entry): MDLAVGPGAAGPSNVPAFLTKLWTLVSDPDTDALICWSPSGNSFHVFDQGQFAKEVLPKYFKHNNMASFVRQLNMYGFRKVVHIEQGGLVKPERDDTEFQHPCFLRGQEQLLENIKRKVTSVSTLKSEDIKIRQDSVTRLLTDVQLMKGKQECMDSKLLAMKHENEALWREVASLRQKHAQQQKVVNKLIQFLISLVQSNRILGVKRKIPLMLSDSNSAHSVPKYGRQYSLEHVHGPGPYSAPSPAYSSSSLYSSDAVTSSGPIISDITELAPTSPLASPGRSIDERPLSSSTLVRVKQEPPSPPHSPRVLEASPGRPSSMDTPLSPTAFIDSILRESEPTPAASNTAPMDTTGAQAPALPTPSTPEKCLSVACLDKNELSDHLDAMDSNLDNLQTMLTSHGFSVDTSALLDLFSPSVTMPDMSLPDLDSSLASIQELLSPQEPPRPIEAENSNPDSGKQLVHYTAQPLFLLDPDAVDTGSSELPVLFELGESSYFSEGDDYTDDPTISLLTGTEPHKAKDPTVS
# Ephrin type-A receptor 4 = Ephrin type-A receptor 4 (Mus musculus, UniProt Q03137); assay: inhibitors of EphA4 binding to KYL peptide, primary screen, biochemical, colorimetric, mouse EphA4 (AID 689); type: functional
# Sequence of Ephrin type-A receptor 4 (Q03137 whole entry): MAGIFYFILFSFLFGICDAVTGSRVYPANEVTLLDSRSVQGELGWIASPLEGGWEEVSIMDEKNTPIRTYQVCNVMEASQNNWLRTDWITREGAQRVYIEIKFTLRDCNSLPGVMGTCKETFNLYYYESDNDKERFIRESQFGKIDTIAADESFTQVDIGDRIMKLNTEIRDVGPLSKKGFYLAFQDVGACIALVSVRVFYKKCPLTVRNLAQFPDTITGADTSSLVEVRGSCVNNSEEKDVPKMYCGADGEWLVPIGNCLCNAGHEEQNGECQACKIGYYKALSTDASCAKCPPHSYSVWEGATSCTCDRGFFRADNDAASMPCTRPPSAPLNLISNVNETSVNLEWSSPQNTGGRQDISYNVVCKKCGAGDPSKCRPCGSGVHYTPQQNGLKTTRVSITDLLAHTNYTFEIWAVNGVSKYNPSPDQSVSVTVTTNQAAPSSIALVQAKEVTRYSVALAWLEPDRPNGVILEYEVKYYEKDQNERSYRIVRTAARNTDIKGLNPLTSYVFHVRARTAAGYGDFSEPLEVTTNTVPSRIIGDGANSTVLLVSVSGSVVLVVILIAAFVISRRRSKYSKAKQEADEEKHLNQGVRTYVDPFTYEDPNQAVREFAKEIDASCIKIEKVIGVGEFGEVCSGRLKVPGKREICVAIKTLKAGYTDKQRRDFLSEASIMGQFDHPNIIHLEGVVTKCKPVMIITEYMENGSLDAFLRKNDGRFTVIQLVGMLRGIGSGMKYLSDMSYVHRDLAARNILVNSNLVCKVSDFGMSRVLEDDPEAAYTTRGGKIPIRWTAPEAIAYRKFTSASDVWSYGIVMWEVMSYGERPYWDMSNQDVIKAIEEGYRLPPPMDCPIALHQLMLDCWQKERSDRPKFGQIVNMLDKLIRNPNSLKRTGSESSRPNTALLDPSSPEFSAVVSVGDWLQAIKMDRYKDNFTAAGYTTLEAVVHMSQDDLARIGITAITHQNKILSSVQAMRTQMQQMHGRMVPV
# [7] = target: T3, Sentrin-specific protease 8 (Homo sapiens, UniProt Q96LD8); type: functional
# T3 sequence (Q96LD8 whole entry): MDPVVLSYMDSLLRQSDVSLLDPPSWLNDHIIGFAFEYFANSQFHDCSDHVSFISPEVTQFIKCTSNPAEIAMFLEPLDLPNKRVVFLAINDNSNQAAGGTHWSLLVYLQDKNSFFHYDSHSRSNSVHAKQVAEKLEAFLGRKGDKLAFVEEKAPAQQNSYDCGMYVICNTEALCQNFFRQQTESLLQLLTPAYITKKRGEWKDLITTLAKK
# Protein RecA = target: T4, Protein RecA (Mycobacterium tuberculosis, UniProt P9WHJ3); assay: Fluorescence Cell-Free Homogeneous Dose Retest to Identify Inhibitors of RecA-Intein Splicing Activity. [Related pubchem assays (depositor defined):AID2097, AID2223, AID489010, AID492950]; type: functional
# T4 sequence (P9WHJ3 whole entry): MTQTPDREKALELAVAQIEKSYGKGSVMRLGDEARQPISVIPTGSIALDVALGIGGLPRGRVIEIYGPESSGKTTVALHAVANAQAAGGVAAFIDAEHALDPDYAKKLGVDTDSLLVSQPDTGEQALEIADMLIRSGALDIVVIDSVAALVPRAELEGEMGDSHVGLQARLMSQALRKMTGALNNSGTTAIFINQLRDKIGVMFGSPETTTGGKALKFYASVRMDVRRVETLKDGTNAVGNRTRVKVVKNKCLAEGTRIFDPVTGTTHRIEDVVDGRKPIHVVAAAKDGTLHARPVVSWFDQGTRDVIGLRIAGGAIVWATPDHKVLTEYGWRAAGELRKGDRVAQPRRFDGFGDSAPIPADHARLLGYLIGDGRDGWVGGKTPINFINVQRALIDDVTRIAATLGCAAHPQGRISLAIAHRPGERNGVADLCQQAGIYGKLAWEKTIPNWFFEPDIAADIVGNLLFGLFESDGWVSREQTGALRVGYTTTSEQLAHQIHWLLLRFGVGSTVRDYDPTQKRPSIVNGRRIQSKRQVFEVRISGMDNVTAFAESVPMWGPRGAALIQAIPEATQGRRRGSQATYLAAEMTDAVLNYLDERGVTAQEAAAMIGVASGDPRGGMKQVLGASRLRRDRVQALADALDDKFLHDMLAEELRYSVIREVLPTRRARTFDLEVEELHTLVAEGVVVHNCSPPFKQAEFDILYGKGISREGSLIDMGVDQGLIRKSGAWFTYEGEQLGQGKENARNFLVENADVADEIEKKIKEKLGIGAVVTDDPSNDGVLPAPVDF
# [8] = target: T3, Sentrin-specific protease 8; type: functional; remark: listed apart in the source
# [9] = target: T5, Replicative DNA helicase DnaB (Mycobacterium tuberculosis, UniProt P9WMR3); assay: DnaB intein splicing inhibitors, dose response, biochemical, cell-free fluorescence (AID 449749); type: functional
# T5 sequence (P9WMR3 whole entry): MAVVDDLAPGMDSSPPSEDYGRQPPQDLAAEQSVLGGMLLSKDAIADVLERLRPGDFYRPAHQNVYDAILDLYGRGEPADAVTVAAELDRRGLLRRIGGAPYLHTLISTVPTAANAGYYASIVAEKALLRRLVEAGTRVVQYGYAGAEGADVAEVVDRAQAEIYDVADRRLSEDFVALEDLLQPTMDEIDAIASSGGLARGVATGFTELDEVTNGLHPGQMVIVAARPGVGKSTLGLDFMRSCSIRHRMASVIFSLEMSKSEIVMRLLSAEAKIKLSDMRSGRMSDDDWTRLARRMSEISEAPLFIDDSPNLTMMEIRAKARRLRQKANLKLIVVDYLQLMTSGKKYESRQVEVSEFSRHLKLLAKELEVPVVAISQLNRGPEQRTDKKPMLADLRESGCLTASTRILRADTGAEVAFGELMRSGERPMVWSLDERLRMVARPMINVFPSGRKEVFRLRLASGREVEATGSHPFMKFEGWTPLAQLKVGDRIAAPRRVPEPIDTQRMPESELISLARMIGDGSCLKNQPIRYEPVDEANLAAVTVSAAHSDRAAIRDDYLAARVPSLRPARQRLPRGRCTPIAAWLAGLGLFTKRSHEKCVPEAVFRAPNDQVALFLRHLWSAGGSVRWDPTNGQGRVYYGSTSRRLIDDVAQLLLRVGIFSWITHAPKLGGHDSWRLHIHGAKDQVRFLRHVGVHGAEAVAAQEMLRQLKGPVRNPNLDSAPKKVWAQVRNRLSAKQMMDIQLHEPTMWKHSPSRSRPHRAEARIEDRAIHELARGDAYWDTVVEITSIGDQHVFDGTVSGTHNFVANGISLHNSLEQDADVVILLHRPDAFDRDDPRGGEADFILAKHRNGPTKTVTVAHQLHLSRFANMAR
# Estrogen receptor beta [10] = target: T1, Estrogen receptor beta; assay: ERβ–SRC-3 coactivator interaction inhibitors, confirmation, orthogonal assay, biochemical, ELISA, streptavidin-HRP readout (AID 1060)
# [11] = control 3'UTR Renilla luciferase suppression, dose response, counter-screen for Shn3 inhibitor project, cell-based, Clone20-Shn3RL, cherry-picked (AID 624133); type: functional
# [12] = half-maximal inhibitory concentration for glucagon-like peptide-1 release, STC-1 cell line, dose-response (AID 1117345); type: functional, cell-based
# [13] = Luminescence Cell-Based Dose Retest to Confirm Inhibitors of Cancer Stem Cells. [Related pubchem assays (depositor defined):AID2717, AID2721]; type: functional; conditions: Homo sapiens
# INS1 = assay: beta cell apoptosis inhibitors, cytokine rescue, dose response, luminescence, retest (AID 449756); type: functional, cell-based; conditions: Rattus norvegicus;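 note: cell death triggered by IL-1 beta plus TNF-alpha plus IFN-gamma mixture; protective hits raise ATP signal compared with cytokine alone wells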
# [14] = Shn3 3'UTR reporter inhibitors, dose response, cell-based, Clone20 osteoblasts, firefly luciferase, cherry-picked (AID 624132); type: functional;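 note: firefly luciferase luminescence from reporter carrying the Shn3 3'UTR in osteoblasts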
# [15] = target: T6, Ubiquitin-conjugating enzyme E2 N (Homo sapiens, UniProt P61088); type: functional;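 note: Dose-response confirmation in a TR-FRET assay detecting UBC13-driven polyubiquitin chain formation, inhibition measured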
# T6 sequence (P61088 whole entry): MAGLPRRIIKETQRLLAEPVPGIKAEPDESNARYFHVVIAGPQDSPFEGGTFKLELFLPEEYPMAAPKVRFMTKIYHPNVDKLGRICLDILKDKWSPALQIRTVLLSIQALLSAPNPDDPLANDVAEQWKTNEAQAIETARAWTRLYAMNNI
# [16] = Glucagon-like peptide 1 release potency, NCI-H716 cell line, dose-response, half-maximal inhibitory concentration (AID 1117344); type: functional, cell-based
# [17] = microbe, parasite or virus in culture; type: functional; conditions: Mycobacterium tuberculosis
# Vero = assay: cytotoxicity of synthesized analogs in Vero cells, SAR follow-up, cytotoxicity control for West Nile virus antiviral project, cell-based, set II (AID 2402); type: functional; conditions: Chlorocebus sabaeus
# [18] = target: T7, Aryl hydrocarbon receptor (Homo sapiens, UniProt P35869); assay: Luminescence-based cell-based high throughput dose response assay for activators of the Aryl Hydrocarbon Receptor (AHR). [Related pubchem assays: 2796 (Primary screen (AHR activators in singlicate)), 2845 (Confirmation screen (AHR activators in triplicate)), 434939 (Counterscreen (PXR activators in triplicate)), 2804 (Summary (AHR activators))]; type: ADME
# T7 sequence (P35869 whole entry): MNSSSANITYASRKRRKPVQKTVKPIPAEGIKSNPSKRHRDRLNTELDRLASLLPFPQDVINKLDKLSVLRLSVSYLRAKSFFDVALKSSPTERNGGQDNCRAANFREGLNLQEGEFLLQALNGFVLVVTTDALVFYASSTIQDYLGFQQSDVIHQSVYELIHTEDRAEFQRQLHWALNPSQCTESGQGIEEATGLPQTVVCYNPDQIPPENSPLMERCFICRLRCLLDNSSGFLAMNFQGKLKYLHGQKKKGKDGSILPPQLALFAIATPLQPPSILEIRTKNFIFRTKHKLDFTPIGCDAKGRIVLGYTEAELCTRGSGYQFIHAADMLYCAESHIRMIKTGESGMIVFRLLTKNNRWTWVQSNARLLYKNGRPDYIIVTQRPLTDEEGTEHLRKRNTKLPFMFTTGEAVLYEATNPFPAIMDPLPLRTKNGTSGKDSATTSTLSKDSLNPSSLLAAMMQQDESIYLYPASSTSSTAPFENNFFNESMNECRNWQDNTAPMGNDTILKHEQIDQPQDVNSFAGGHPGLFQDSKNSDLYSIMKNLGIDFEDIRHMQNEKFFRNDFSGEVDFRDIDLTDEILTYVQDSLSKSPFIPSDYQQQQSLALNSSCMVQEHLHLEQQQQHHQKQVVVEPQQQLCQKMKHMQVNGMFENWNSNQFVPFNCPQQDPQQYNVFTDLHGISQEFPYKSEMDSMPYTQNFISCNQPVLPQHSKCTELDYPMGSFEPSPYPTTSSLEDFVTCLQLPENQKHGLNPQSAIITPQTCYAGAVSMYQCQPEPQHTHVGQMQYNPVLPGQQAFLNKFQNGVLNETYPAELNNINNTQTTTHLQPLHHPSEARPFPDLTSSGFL
# Fatty acid synthase [19] = target: T8, Fatty acid synthase (Homo sapiens, UniProt P49327); assay: FAS thioesterase domain inhibitors, dose response, biochemical, kinetic fluorescence intensity (AID 624326); type: functional;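 note: rate of fluorescence rise from hydrolysis of a fluorogenic O-methyl fluorescein ester substrate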
# T8 sequence (P49327 whole entry, the tested form may be a part): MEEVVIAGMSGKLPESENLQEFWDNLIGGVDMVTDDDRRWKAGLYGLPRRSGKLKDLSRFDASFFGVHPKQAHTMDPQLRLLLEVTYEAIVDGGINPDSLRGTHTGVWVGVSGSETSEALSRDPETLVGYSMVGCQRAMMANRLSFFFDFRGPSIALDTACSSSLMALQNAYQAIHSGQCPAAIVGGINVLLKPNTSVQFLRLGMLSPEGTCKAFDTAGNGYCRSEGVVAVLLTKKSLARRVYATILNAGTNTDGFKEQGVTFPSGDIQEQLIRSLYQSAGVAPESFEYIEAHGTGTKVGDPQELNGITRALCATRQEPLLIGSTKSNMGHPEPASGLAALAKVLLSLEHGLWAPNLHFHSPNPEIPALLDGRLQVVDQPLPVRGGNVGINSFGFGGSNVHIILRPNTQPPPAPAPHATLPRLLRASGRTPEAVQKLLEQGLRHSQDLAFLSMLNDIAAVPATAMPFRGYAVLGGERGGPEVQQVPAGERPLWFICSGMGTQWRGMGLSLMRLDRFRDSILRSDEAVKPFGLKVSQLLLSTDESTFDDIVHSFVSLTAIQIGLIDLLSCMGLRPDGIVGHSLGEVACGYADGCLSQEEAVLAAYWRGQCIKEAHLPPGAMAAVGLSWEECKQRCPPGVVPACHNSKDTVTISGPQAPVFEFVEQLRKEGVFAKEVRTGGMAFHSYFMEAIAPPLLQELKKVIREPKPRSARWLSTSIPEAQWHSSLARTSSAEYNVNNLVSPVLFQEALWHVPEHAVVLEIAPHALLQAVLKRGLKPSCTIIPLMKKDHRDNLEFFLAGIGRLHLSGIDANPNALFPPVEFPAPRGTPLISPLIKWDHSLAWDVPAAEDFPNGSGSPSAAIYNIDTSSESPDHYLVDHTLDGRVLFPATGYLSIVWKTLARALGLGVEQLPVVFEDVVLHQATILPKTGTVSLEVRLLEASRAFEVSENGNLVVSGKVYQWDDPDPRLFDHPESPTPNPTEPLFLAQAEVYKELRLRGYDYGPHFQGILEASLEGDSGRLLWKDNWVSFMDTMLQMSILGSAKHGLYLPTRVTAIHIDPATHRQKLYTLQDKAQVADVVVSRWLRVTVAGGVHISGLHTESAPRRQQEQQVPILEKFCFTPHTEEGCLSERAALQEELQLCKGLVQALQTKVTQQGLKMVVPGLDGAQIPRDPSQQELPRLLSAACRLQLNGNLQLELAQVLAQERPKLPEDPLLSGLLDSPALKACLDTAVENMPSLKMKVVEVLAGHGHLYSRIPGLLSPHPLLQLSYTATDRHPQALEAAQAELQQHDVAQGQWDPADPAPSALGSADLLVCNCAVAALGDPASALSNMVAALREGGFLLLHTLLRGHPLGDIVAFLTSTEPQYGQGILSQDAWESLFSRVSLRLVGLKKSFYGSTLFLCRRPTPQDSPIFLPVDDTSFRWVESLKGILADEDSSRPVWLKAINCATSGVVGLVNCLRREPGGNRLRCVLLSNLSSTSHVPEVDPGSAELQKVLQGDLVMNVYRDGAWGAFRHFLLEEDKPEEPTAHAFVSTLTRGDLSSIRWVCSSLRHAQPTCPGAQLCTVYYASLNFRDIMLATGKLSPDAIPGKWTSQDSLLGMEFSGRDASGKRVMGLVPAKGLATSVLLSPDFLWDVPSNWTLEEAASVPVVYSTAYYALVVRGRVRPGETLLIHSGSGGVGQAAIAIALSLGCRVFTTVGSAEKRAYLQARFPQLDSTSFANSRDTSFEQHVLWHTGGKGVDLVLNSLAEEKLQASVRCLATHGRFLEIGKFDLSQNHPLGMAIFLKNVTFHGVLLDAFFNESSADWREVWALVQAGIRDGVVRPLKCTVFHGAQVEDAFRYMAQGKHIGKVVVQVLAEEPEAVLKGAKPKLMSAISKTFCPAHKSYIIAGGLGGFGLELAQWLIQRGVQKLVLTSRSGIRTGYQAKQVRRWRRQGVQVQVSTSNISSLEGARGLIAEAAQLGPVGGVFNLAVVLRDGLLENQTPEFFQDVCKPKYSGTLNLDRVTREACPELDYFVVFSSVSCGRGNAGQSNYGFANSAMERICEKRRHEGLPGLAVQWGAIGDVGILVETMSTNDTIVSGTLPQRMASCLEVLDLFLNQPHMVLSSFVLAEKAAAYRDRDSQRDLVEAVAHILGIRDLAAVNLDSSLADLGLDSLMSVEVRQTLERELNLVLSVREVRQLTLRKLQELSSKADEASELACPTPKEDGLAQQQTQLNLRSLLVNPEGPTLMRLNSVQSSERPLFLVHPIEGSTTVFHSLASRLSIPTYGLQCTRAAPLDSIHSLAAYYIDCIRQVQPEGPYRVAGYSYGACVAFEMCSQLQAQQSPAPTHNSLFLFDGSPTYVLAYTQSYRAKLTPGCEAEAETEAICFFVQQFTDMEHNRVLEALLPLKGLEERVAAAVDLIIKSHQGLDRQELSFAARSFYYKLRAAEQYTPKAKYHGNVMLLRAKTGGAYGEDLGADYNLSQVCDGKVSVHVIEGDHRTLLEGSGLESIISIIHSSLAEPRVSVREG
# Fatty acid synthase [20] = target: T8, Fatty acid synthase; assay: FAS thioesterase domain inhibitors, dose response, biochemical, endpoint fluorescence intensity, uHTS hits (AID 624327); type: functional;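 note: fluorescence from hydrolysis of an O-methyl fluorescein acyl ester substrate by the enzyme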
# Sequence of Mitogen-activated protein kinase 10 (P53779 whole entry): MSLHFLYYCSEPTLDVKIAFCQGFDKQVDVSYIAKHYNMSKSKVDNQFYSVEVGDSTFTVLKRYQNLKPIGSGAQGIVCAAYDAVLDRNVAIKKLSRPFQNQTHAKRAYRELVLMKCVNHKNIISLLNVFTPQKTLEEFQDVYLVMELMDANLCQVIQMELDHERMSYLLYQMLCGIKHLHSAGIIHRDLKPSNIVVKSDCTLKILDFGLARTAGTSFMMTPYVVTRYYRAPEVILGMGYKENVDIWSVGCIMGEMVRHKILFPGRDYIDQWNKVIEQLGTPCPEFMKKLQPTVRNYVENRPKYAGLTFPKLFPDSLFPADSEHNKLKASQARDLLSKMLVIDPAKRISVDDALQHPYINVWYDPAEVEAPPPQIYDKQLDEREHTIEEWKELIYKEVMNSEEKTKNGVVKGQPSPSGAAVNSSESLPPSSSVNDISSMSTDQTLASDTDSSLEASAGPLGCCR
compound,measurement,setting,value
CC1=C(C(=O)OC2CCCCCCC2)C(c2ccc(O)cc2)NC(=O)N1 (stereo not drawn),IC50,[1],41.9 µM (not active)
same,EC50,[2],> 120 µM (not active)
same,EC50,[3],23.9 µM (active)
same,EC50,[4],21.1 µM (active)
Cc1cc(=O)[nH]c(SCC(=O)Nc2nc3c(s2)CCCC3)n1,IC50,Estrogen receptor beta [5],> 50 µM (not active)
COc1ccc(OC)c(NC(=O)CSc2nc3ccccc3cc2Cc2ccccc2)c1,EC50,[6],> 195 µM (not active)
same,IC50,Ephrin type-A receptor 4,> 100 µM (not active)
O=C1/C(=C\c2nc3ccccc3[nH]2)SC(=S)N1c1ccc(F)cc1,IC50,Ephrin type-A receptor 4,> 100 µM (not active)
CC1=CC2(O)OCCN(CCO)C2=CC1=O (stereo not drawn),IC50,[7],22.3 µM (active)
same,EC50,Protein RecA,10.2 µM (active)
same,IC50,[8],> 100 µM (inactive)
same,AC50,[9],16.9 µM (active)
same,IC50,Estrogen receptor beta [10],< 0.023 µM (not active)
CCCCCCCCNC(C)C(O)c1ccc(SC(C)C)cc1 (stereo not drawn) [SULOCTIDIL],AC50,[11],8.28 µM (active)
same,IC50,[12],> 40 µM (inactive)
same,AC50,[13],2.11 µM (active)
same,AC50,INS1,8.21 µM (active)
same,AC50,[14],3.94 µM (active)
same,IC50,[15],> 20 µM (inactive)
same,IC50,[16],13 µM (inactive)
same,CC50,[17],17.3 µM (active)
OC1c2c(F)cccc2N=C2CCCCN21 (stereo not drawn),CC50,Vero,> 200 µM (active)
COC(=O)c1cc(C(=O)Nc2nnc(C3CC3)s2)cc([N+](=O)[O-])c1,EC50,[18],3.02 µM (active)
same,IC50,Fatty acid synthase [19],13.8 µM (active)
same,IC50,Fatty acid synthase [20],9.7 µM (active)
CCOc1ccc(NC(=O)c2cc3ccccc3cc2OC)cc1,EC50,[18],2.17 µM (active)
Cn1nc(C(=O)Nc2sccc2C(N)=O)ccc1=O,IC50,Estrogen receptor beta [10],> 50 µM (not active)
O=C(CCCn1c(=S)[nH]c2cc3c(cc2c1=O)OCO3)N1CCc2ccccc2C1,IC50,Estrogen receptor beta [5],> 50 µM (not active)
